Measured values published in patent publication US20080096932A1, “3-Pyridinylethylcarboxamide Derivatives as Fungicides” (priority 2004, published 2008).

Key:
Botrytis cinerea = assay: effectiveness on Botrytis cinerea; format: in vivo; conditions: at 330 ppm; comparison compounds of WO 01/11965
Alternaria brassicae = assay: in vivo test on Alternaria brassicae (Leaf spot of crucifers); conditions: for effectiveness on Alternaria brassicae: at 330 ppm, comparison compounds of WO 01/11965
Procedure: in vivo test on Alternaria brassicae (Leaf spot of crucifers)
The active ingredient tested is prepared by potter homogenisation in a concentrated suspension type formulation at 100 g/l. This suspension is then diluted with water to obtain the desired active material concentration.
Radish plants (Pernot variety) in starter cups, sown on a 50/50 peat soil-pozzolana substrate and grown at 18-20° C., are treated at the cotyledon stage by spraying with the aqueous suspension described above.
Plants, used as controls, are treated with an aqueous solution not containing the active material.
After 24 hours, the plants are contaminated by spraying them with an aqueous suspension of Alternaria brassicae spores (40,000 spores per cm^3). The spores are collected from a 12 to 13 days-old culture.
The contaminated radish plants are incubated for 6-7 days at about 18° C., under a humid atmosphere.
Grading is carried out 6 to 7 days after the contamination, in comparison with the control plants.

Peronosporaparasitica = assay: efficacy against Peronospora parasitica; format: in vivo; conditions: at 330 ppm; comparison compound of WO 01/11965

Row | Structure (SMILES) | effectiveness on Botrytis cinerea (Botrytis cinerea) | effectiveness on Alternaria brassicae (Alternaria brassicae) | efficacy against Peronospora parasitica (Peronosporaparasitica) | protection (good (at least 50%) or total) (Alternaria brassicae; 330 ppm, radish plants sprayed 24 h before contamination, grading 6 to 7 days after contamination vs control plants)
1 | CNC(=O)C(Cc1ncc(C(F)(F)F)cc1Cl)NC(=O)c1ccc(OC)cc1 (stereo not shown) [compound 315, N-{1-methylcarbamoyl-2-[3-chloro-5-(trifluoromethyl)-2-pyridinyl]ethyl}-4-methoxybenzamide] | zero effectiveness | – | – | –
2 | CCNC(=O)C(Cc1ncc(C(F)(F)F)cc1Cl)NC(=O)c1ccccc1 (stereo not shown) [compound 304, N-{1-ethylcarbamoyl-2-[3-chloro-5-(trifluoromethyl)-2-pyridinyl]-ethyl}-benzamide] | zero effectiveness | – | – | –
3 | O=C(Cc1cccs1)NCc1ncc(C(F)(F)F)cc1Cl [compound 101, N-{[3-chloro-5-(trifluoromethyl)-2-pyridinyl]methyl}-5-thienylacetamide] | no efficacy | poor efficacy | no efficacy | –
4 | CNC(=O)C(Cc1ncc(C(F)(F)F)cc1Cl)NC(=O)c1ccccc1 (stereo not shown) [compound 314, N-{1-methylcarbamoyl-2-[3-chloro-5-(trifluoromethyl) -2-pyridinyl]ethyl}-benzamide] | zero effectiveness | – | – | –
5 | CCNC(=O)C(Cc1ncc(C(F)(F)F)cc1Cl)NC(=O)c1ccccc1Br (stereo not shown) [compound 310, N-{1-ethylcarbamoyl-2-[3-chloro-5-(trifluoromethyl)-2-pyridinyl]ethyl}-2-bromobenzamide] | zero effectiveness | – | – | –
6 | Cn1cc(C(=O)NCCc2ccc(C(F)(F)F)nc2)c(C(F)(F)F)n1 [Compound A-1, N-[2-(6-trifluoromethyl-3-pyridinyl)ethyl]-1-methyl-3-(trifluoromethyl)-1H-pyrazole-4-carboxamide] | – | – | – | at least 50%
7 | CCNC(=O)C(Cc1ncc(C(F)(F)F)cc1Cl)NC(=O)c1cccc([N+](=O)[O-])c1 (stereo not shown) [compound 307, N-{1-ethylcarbamoyl-2-[3-chloro-5-(trifluoromethyl)-2-pyridinyl]ethyl}-3-nitrobenzamide] | zero effectiveness | poor effectiveness | – | –
8 | CNC(=O)C(Cc1ncc(C(F)(F)F)cc1Cl)NC(=O)c1ccc(-c2ccccc2)cc1 (stereo not shown) [compound 316, N-{1-methylcarbamoyl-2-[3-chloro-5-(trifluoromethyl)-2-pyridinyl]-ethyl}-4-phenylbenzamide] | zero effectiveness | poor effectiveness | – | –
9 | CCNC(=O)C(Cc1ncc(C(F)(F)F)cc1Cl)NC(=O)c1ccc(Cl)cc1 (stereo not shown) [compound 306, N-{1-ethylcarbamoyl-2-[3-chloro-5-(trifluoromethyl) -2-pyridinyl]ethyl}-4-chlorobenzamide] | zero effectiveness | – | – | –
